We go through 3 compounds from article PMC3677712 (Bioorganic & medicinal chemistry letters, 2013).

Data set [1] can be described thus: Intrinsic clearance in hepatic microsomes. It counts as in vitro ADME. As to conditions: rat.
Data set [2] can be described thus: Intrinsic clearance in hepatic microsomes. As to conditions: mouse. In kind it is in vitro ADME.
The nature of data set [3]: Intrinsic clearance in hepatic microsomes. In kind it is in vitro ADME. Particulars: human.
Data set [4] deals with T1, AMPK (AMPK-A1/B1/G1) (Homo sapiens, UniProt Q13131). The experiment in a line: In vitro kinase assay. Particulars: 10-dose, 3-fold dilution from 100 μM, 10 μM ATP. It counts as biochemical.
The target in data set [5] is T1, AMPK (AMPK-A1/B1/G1). Particulars: reference compounds previously run in these assays; cited from earlier work.
Data set [6] relates to ALK2 (Q207D). As to conditions: mouse model expressing a constitutively active form of ALK2 (Q207D); cited from earlier work.
Setting [7] is: predicted from microsomal intrinsic clearance.

Each structure is given as a SMILES string. Read-outs that look alike come from different tables or passages of the source.

T1 sequence (Q13131 whole entry): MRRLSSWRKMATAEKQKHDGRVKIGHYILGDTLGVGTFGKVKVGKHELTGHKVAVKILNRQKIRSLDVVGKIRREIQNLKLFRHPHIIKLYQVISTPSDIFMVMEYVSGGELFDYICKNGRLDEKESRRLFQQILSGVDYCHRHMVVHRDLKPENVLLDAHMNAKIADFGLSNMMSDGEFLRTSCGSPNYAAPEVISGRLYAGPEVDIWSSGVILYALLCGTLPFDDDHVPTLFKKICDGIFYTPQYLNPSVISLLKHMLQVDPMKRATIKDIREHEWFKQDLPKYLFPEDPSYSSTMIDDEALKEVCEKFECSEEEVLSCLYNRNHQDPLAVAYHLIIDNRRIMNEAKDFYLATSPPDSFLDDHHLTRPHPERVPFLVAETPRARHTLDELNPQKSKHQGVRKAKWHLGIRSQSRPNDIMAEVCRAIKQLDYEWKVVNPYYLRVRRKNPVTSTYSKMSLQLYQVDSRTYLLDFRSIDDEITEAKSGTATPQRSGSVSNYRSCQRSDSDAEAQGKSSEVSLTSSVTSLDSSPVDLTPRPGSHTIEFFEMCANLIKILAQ
T1 sequence (Q9Y478 whole entry partner): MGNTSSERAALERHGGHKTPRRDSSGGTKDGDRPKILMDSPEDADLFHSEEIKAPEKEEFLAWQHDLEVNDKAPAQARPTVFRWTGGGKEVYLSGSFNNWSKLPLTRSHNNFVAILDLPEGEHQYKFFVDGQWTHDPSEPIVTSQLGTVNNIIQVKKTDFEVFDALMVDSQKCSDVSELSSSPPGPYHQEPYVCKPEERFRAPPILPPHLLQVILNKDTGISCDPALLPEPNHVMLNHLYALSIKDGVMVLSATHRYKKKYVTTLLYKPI
T1 sequence (P54619 whole entry partner): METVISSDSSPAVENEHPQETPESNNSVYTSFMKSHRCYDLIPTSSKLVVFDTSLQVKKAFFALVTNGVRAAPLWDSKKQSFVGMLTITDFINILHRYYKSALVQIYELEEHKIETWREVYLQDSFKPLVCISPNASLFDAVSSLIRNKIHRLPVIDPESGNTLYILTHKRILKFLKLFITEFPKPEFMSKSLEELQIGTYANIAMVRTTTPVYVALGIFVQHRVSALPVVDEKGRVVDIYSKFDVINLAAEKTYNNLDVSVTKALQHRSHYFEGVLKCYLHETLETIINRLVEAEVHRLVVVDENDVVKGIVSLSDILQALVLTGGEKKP

Turning to `COc1ccc(-c2cnc3c(-c4cccc5ncccc45)cnn3c2)cc1` [7g], the CLint scaled in data set [1] (liver microsomes) is 8.88 L/h/kg; in data set [2] (liver microsomes), 37 L/h/kg; in data set [3] (liver microsomes), 31 L/h/kg. Besides, the CLHEP was 2.85 L/h/kg in data set [1] (setting [7]), 4.71 L/h/kg in data set [2] (setting [7]) and 1.21 L/h/kg in data set [3] (setting [7]). Further, the “IC50 AMPK” value in data set [4] is on record as “Inactive”.
With `CC(C)Oc1ccc(-c2cnc3c(-c4ccnc5ccccc45)cnn3c2)cc1` [DMH1, 3, DMH1], the “IC50 AMPK” value in data set [5] is “Inactive”.
In the case of `c1ccc2c(-c3cnn4cc(-c5ccc(N6CCNCC6)cc5)cnc34)ccnc2c1` [LDN-193189, 2, LDN-193189], in data set [6], the “effect on ectopic ossification (in words)” value was “could blunt ectopic ossification”.

One may read the CLint scaled as the rate of metabolic loss divided by the concentration.
